According to patent US12324855B2, “Method of safe administration of phosphorylated Tau peptide vaccine” (AC Immune SA, priority 2019, dated 2025):
Square brackets hold non-standard residues; d marks the D form. Ends that are not written are not given here. pS = N[C@@H](COP(=O)(O)O)C(=O)O

Tested on: CD4+ T-cell response in PBMCs from 51 human donors
Experiment: EpiScreen time course T-cell proliferation and IL-2 ELISPOT assays (Example 6)
Assay type: cell-based
Conditions: 5 μM peptide, 51 donors; for donors responding, taking into account borderline responses and donors responding in only one of the two assays: SI≥1.90 borderline; for donors responding in both IL-2 ELISPOT and proliferation assays: SI≥2.00
Protocol: Two 16-mer peptides, Tau 393-408[pS396/pS404] (T3.5 having the amino acid sequence of SEQ ID NO:2) and Tau393-408 (T3.6 having the amino acid sequence of SEQ ID NO:4) were tested in EpiScreen™ time course T-cell assays for the capacity to induce CD4^+ T-cell response in 51 human donors.
EpiScreen™ Time Course T-cell Proliferation Assays and IL-2 ELISPOT Assays
PBMCs from 51 human donors were stimulated with either peptide at a final concentration of 5 μM. For each donor, a reproducibility control (cells incubated with 100 μg/mL KLH), a benchmark clinical control (cells incubated with 0.3 μM humanized A33) and a culture medium only well were also included. Proliferation and IL-2 production were evaluated after different time points.
For proliferation assays and IL-2 ELISPOT assays, an empirical threshold of a Stimulation Index (SI) equal to or greater than two (SI≥2.00) has been previously established whereby samples inducing responses above this threshold are deemed positive whereas SI≥1.90 were considered as borderline responders.
Previous EpiScreen™ time course T-cell assays with a range of biologics have shown a clear correlation between the percentage of donor T-cell responses in the EpiScreen™ assay and the level of immunogenicity observed in the clinic. In general, protein therapeutics that induce >10% positive responses in the EpiScreen™ assay are associated with a significant risk of immunogenicity in the clinic.

Row | Substance | donors responding, taking into account borderline responses and donors responding in only one of the two assays | donors responding in both IL-2 ELISPOT and proliferation assays
1 | VYK[pS]PVVSGDT[pS]PRHL [Tau 393-408 [pS396/pS404]] | 8% | 2%
2 | VYKSPVVSGDTSPRHL (tau peptide) [Tau 393-408, 16-mer non-phosphorylated Tau peptide] | 8% | 4%
